The values that follow come from patent publication US9676715B2, “Bis-indolic derivatives, a process for preparing the same and their uses as a drug” (UNIVERSITE JOSEPH FOURIER, priority 2011, dated 2017).

Series [1] concerns Staphylococcus haemolyticus (CHUG-Shae6). The experiment in a line: MIC, Staphylococcus panel (9.2). The class given is cell-based. The following applies: S. haemolyticus CHUG-Shae6, 4% DMSO, 18 h. Here is the method:
(§1) The microdilution method recommended by the Clinical and Laboratory Standard Institute [M07-A9, Vol. 32, N° 2] was used. The activity of bis-indolic compounds 3f and 4 was tested against 35 Staphylococcus bacterial strains corresponding to 12 different species,
(§2) Bacterial inocula were prepared in Mueller Hinton broth (MH2, BioMérieux, Marcy L'Etoile, France). They were dispensed in 96 well microtiter plates (5×10^5 CFU/ml of final inoculum, 192 μL per well). Indolic compounds diluted in pure DMSO (8 μL per well, concentrated 25 times) were added to the wells as to obtain two-fold serial concentrations (0.5-32 mg/L of final concentrations). The final concentration of DMSO was 4% in each well.
(§3) To avoid cross-contaminations in microtiter plates, one row was left blank between each strain tested. Microplates were incubated for 18 h at 37° C. in ambient air. Then MICs were read visually and, in case of visual reading difficulties, confirmed using a spectrophotometer at a wavelength of 630 nm (BioTek® EL808 Absorbance Microplate Reader). MICs corresponded to the minimum bis-indolic compound concentration that allowed complete visual growth inhibition of bacteria. Drug-free cultures served as growth controls.
(§4) Coagulase-negative Staphylococcus strains included three reference strains purchased from CRBIP: a methicillin-susceptible S. epidermidis strain (ATCC 12228), a methicillin-resistant S. epidermidis strain (ATCC 49461), and a methicillin-susceptible S. sciuri strain (ATCC 29061). We also used clinical strains belonging to the following coagulase-negative Staphylococcus species: S. auricularis (two strains), S. warneri (five strains), S. capitis (five strains), S. haemolyticus (four strains), S. hominis (seven strains), S. cohnii (two strains), and S. saprophyticus, S. caprae and S. simulans (one strain each). Identification of the clinical strains was obtained using VITEK® 2 System (Biomérieux). The specified strain numbers correspond to an internal number of the bacterial strain collection of our laboratory.

Series [2] deals with Staphylococcus hominis (CHUG-Shom7). The series can be described thus: MIC, Staphylococcus panel (9.2). Conditions: S. hominis CHUG-Shom7, 4% DMSO, 18 h. The class given is cell-based. Here is the method: as §1, §2, §3, §4
In series [3] the test system is Staphylococcus capitis (CHUG-Scap4). The series can be described thus: MIC, Staphylococcus panel (9.2). Conditions: S. capitis CHUG-Scap4, 4% DMSO, 18 h. The class given is cell-based. Here is the method:
as §1, §2, §3, §4

Series [4] deals with Staphylococcus warneri (CHUG-Swar4). The series can be described thus: MIC, Staphylococcus panel (9.2). Conditions: S. warneri CHUG-Swar4, 4% DMSO, 18 h. It is filed as cell-based. Here is the method:
as §1, §2, §3, §4

Series [5] concerns Staphylococcus caprae (CHUG-Scapra1). The experiment in a line: MIC, Staphylococcus panel (9.2). It is filed as cell-based. Conditions: S. caprae CHUG-Scapra1, 4% DMSO, 18 h. Here is the method: as §1, §2, §3, §4
Series [6] has as its system Staphylococcus simulans (CHUG-Ssim1). The series can be described thus: MIC, Staphylococcus panel (9.2). Conditions: S. simulans CHUG-Ssim1, 4% DMSO, 18 h. It is filed as cell-based. Here is the method:
as §1, §2, §3, §4

In series [7] the test system is Staphylococcus aureus ATCC 106414 (VISA). The experiment in a line: MIC, Staphylococcus panel (9.2). It is filed as cell-based. The following applies: 18 h. Here is the method:
as §1, §2, §3
Four Staphylococcus aureus strains were used. Two reference strains were provided by the French reference center for Staphylococcus spp. (Lyon, France), including one methicillin-susceptible (MSSA 476) and one methicillin-resistant (MRSA 252) S. aureus strains. The two remaining S. aureus strains were purchased from the CRBIP (Centre de Ressources Biologiques de l'Institut Pasteur): a vancomycin-intermediate strain (ATCC 106414) and a S. aureus strain (SA-1199B) resistant to fluoroquinolones due to overexpression of the NorA multidrug efflux pump.

Values after ≈ are worked out from the molar mass of the structure shown.

What is called MIC is the lowest concentration that inhibits growth of the organism. Low readings indicate a more susceptible organism, high ones a less susceptible organism. One may read the melting point as the temperature of the solid-liquid transition.

For the compound `CC(C)(C)OC(=O)NCC(NC(=O)c1c[nH]c2ccc(Br)cc12)c1c[nH]c2ccc(Br)cc12` (centres unmarked) [Compound 3f, tert-Butyl(2-(5-bromo-1H-indol-3-yl)-2-(5-bromo-1H-indolyl-3-carboxamido)ethyl)carbamate], the MIC turned out to be 16 µg/mL (≈ 27.8 µM) in series [1]; 8 µg/mL (≈ 13.9 µM) in series [2]; 4 µg/mL (≈ 6.94 µM) in series [3]; 8 µg/mL (≈ 13.9 µM) in series [4]; 8 µg/mL (≈ 13.9 µM) in series [5]; 16 µg/mL (≈ 27.8 µM) in series [6].

On to `CC(NC(=O)c1c[nH]c2ccc(Br)cc12)c1c[nH]c2ccc(Br)cc12` (centres unmarked) [Compound 4, 5-Bromo-N-(1-(5-bromo-1H-indol-3-yl)ethyl)-1H-indole-3-carboxamide], for which the melting point was found to be 144 °C. Also, the minimal inhibitory concentration (MIC) in series [7] came to 1 µg/mL (≈ 2.17 µM).
